Patent publication US20170304336A1, “COMBINATION” (priority 2014, published 2017)
One block for each compound: values may come before it.

Columns and labels:
Format in all cases: in vivo, male rats of Wistar line
[1] = test system: experimental rat hypercholesterolemia model; assay: Lipid spectrum of blood in experimental rat hypercholesterolemia model
Method: The animals used were male rats of Wistar line. […] The proposed model using rats as the experimental animals is a reproducible standard model for evaluation of hypocholesterolemic effect.
(§1) Evaluation of hypocholesterolemic efficacy and safety of pharmaceutical combination was performed in vivo in experimental rat hypercholesterolemia model.
(§2) For 90 days the studied animals received hypercholesterol diet for pathology induction. The diet included Cholesterol+Cholic acid+Overheated fats (deep fat).
For 90 days the animals received the said ration ad libitum (30 g feed per animal). Development of hypercholesterolemia in animals was evaluated based on changes in lipid spectrum parameters on Day 30 of the study.
(§3) Drugs were introduced intragastrically with an esophageal bougie daily on Day 31-90 of the study at the same time of day.
Biochemical parameters and activity of blood serum enzymes (total cholesterol (CHS), LDL-CHS, HDL-CHS, triglycerides.
1.0-1.84 ml blood samples for the study of biochemical parameters were taken from tail vein of rats. Blood samples were taken from the animals after 14-15-hour's fasting at same time of day (9.00-11.00). For biochemical parameters tests a Biochemical Analyzer A-25 (Biosystems, Spain) was used. […]

[2] = Mass coefficients of organs (pancreas, liver, kidneys) of rats; conditions: M ± m; for weight coefficient, Kidneys / weight coefficient, Liver: in %
Method: To calculate mass coefficients the pancreas, liver and kidneys of the animals were extracted. The organs were weighed and the mass coefficients were calculated by the following formula:
Mass coefficient=(organ weight/animal body weight)×100%

[3] = test system: experimental rat hypercholesterolemia model; assay: Biochemical blood analysis (drug toxicity parameters) in rat hypercholesterolemia model
Method: as §1, §2, §3
Biochemical parameters and activity of serum enzymes (aspartate- and alanine aminotransferase, creatine phosphokinase, urea, serum amylase, total bilirubin, direct bilirubin, indirect bilirubin, serum glucose, cations K^+, Na^+).
1.0-1.84 ml blood samples for the study of biochemical parameters were taken from tail vein of rats. Blood samples were taken from the animals after 14-15-hour's fasting at same time of day (9.00-11.00). For biochemical parameters tests a Biochemical Analyzer A-25 (Biosystems, Spain) was used.
Vol. 4. pp. 1794-1798; Pearlman F C and Lee R T Y. Clin Chem 1974, 20, 447-453; Zoppi F et al, Peracino A., Fenili D., Marcovina S. and Ramella C. Giorn It Chim Cl. […] C. et al Clin Chem. 1974. Vol. 20. pp. 470-475; and in Meiattini F., et al, Clin Chem. 1978. Vol. 24. pp. 2161-2165 (total cholesterol); Warnick G R et al. Clin Chem 2001, 47, 1579-96 (HDL/LDL); Bucolo G and David H. Clin Chem. 1973.-Vol. 19. pp. 476-482; and in Fossati P. and, Prencipe L., Clin Chem. 1982. Vol. 28. pp. 2077-2080 (triglycerides); Trinder P. Ann Clin Biochem. 1969. Vol. 6. pp. 24-27).

[4] = Day 30 of treatment (Day 60 of study), dose 20 mg
[5] = Day 30 of treatment (Day 60 of study), dose 40 mg
[6] = Day 30 of treatment, 20 mg as monotherapy
[7] = Day 60 of treatment (Day 90 of study), dose 20 mg
[8] = Day 60 of treatment (Day 90 of study), dose 40 mg
[9] = PV + GtA 40 + 108 mg, PV 40 mg, GtA 108 mg
[10] = group 3 of the rosuvastatin table, 20 mg
[11] = blood, Day 60 of the treatment (Day 90 of the study), PV + GtA 40 + 108 mg, PV 20 mg, GtA 108 mg
[12] = LV + SGA 20 + 108 mg, LV 20 mg, SGA 108 mg
[13] = blood, Day 60 of the treatment (Day 90 of the study), LV + SGA 20 + 108 mg, LV 20 mg, SGA 108 mg
[14] = FV + GA 80 + 90 mg, FV 80 mg, GA 90 mg
[15] = Day 30 of treatment (Day 60 of study), dose 80 mg
[16] = blood, Day 60 of the treatment (Day 90 of the study), FV + GA 80 + 90 mg, FV 80 mg, GA 90 mg
[17] = Day 60 of treatment (Day 90 of study), dose 80 mg

SMILES: CCC(C)(C)C(=O)O[C@H]1C[C@@H](C)C=C2C=C[C@H](C)[C@H](CC[C@@H]3C[C@@H](O)CC(=O)O3)[C@H]21 [SV, (1S,3R,7S,8S,8aR)-8-{2-[(2R,4R)-4-hydroxy-6-oxotetrahydro-2H-pyran-2-yl]ethyl}-3,7-dimethyl-1,2,3,7,8,8a-hexahydronaphthalen-1-yl 2,2-dimethylbutanoate]
HDL CHS [1, 4]: 0.82 ± 0.06 mmol/L | LDL CHS [1, 4]: 3.75 ± 0.25 mmol/L | TG [1, 4]: 1.41 ± 0.11 mmol/L | Total CHS [1, 4]: 5.2 ± 0.2 mmol/L | HDL CHS [1, 5]: 0.58 ± 0.02 mmol/L | LDL CHS [1, 5]: 3.54 ± 0.20 mmol/L | TG [1, 5]: 1.27 ± 0.04 mmol/L | Total CHS [1, 5]: 4.2 ± 0.2 mmol/L | LDL decrease as compared to the control group [1, 6]: 35% | TG decrease as compared to the control group [1, 6]: 18% | decrease of the concentration of CHS as compared to the control group [1, 6]: 26% | increase in concentration of HDL as compared to the control group [1, 6]: 86% | HDL CHS [1, 7]: 0.77 ± 0.05 mmol/L | LDL CHS [1, 7]: 3.50 ± 0.05 mmol/L | TG [1, 7]: 1.43 ± 0.11 mmol/L | Total CHS [1, 7]: 4.9 ± 0.3 mmol/L | HDL CHS [1, 8]: 0.91 ± 0.02 mmol/L | LDL CHS [1, 8]: 3.20 ± 0.1 mmol/L | TG [1, 8]: 1.09 ± 0.05 mmol/L | Total CHS [1, 8]: 3.8 ± 0.1 mmol/L

weight coefficient, Pancreas [2, 9]: 0.47 ± 0.03^1 | weight coefficient, Kidneys [2, 9]: 0.76 ± 0.01 | weight coefficient, Liver [2, 9]: 4.47 ± 0.17 | weight coefficient, Pancreas [2, 10]: 0.49 ± 0.03^1 | weight coefficient, Kidneys [2, 10]: 0.78 ± 0.02 | weight coefficient, Liver [2, 10]: 4.49 ± 0.15
SMILES: CC[C@H](C)C(=O)OC1C[C@H](O)C=C2C=C[C@H](C)C(CC[C@@H](O)C[C@@H](O)CC(=O)O)[C@H]21 (stereo in doubt) [PV, (3R,5R)-3,5-dihydroxy-7-((1R,2S,6S,8R,8aR)-6-hydroxy-2-methyl-8-{[(2S)-2-methylbutanoyl]oxy}-1,2,6,7,8,8a-hexahydronaphthalen-1-yl)-heptanoic acid]
ALT [3, 5]: 177 U/l | AST [3, 5]: 173 U/l | Amylase [3, 5]: 641 U/l | Bilirubin direct [3, 5]: 2.8 mg/dL | Bilirubin indirect [3, 5]: 2.2 mg/dL | Bilirubin total [3, 5]: 4.7 mg/dL | CPK [3, 5]: 604 U/l | Glucose [3, 5]: 150 mg/dL | Potassium [3, 5]: 3.4 mM | Sodium [3, 5]: 127 mmol | Urea [3, 5]: 7.0 mmol/L | ALT [3, 11]: 135 U/l | AST [3, 11]: 188 U/l | Amylase [3, 11]: 586 U/l | Bilirubin direct [3, 11]: 2.7 mg/dL | Bilirubin indirect [3, 11]: 1.9 mg/dL | Bilirubin total [3, 11]: 4.9 mg/dL | CPK [3, 11]: 598 U/l | Glucose [3, 11]: 160 mg/dL | Potassium [3, 11]: 4.3 mM | Sodium [3, 11]: 129 mmol | Urea [3, 11]: 6.0 mmol/L | HDL CHS [1, 5]: 0.65 ± 0.04 mmol/L | LDL CHS [1, 5]: 4.12 ± 0.35 mmol/L | TG [1, 5]: 1.33 ± 0.12 mmol/L | Total CHS [1, 5]: 4.4 ± 0.3 mmol/L | HDL CHS [1, 8]: 0.75 ± 0.04 mmol/L | LDL CHS [1, 8]: 3.70 ± 0.35 mmol/L | TG [1, 8]: 1.33 ± 0.11 mmol/L | Total CHS [1, 8]: 4.0 ± 0.3 mmol/L

SMILES: CC[C@H](C)C(=O)O[C@H]1C[C@@H](C)C=C2C=C[C@H](C)[C@H](CC[C@@H]3C[C@@H](O)CC(=O)O3)[C@H]21 [LV, (1S,3R,7S,8S,8aR)-8-{2-[(2R,4R)-4-hydroxy-6-oxooxan-2-yl]ethyl}-3,7-dimethyl-1,2,3,7,8,8a-hexahydronaphthalen-1-yl (2S)-2-methylbutanoate]
weight coefficient, Pancreas ([2]; LV 40 mg): 0.48 ± 0.03^1 | weight coefficient, Kidneys ([2]; LV 40 mg): 0.77 ± 0.01 | weight coefficient, Liver ([2]; LV 40 mg): 4.46 ± 0.15 | weight coefficient, Pancreas [2, 12]: 0.35 ± 0.04 | weight coefficient, Kidneys [2, 12]: 0.74 ± 0.02 | weight coefficient, Liver [2, 12]: 4.45 ± 0.11 | ALT [3, 4]: 160 U/l | AST [3, 4]: 183 U/l | Amylase [3, 4]: 646 U/l | Bilirubin direct [3, 4]: 2.1 mg/dL | Bilirubin indirect [3, 4]: 2.1 mg/dL | Bilirubin total [3, 4]: 4.6 mg/dL | CPK [3, 4]: 510 U/l | Glucose [3, 4]: 139 mg/dL | Sodium [3, 4]: 128 mmol | Urea [3, 4]: 7.3 mmol/L | ALT [3, 13]: 141 U/l | AST [3, 13]: 190 U/l | Amylase [3, 13]: 597 U/l | Bilirubin direct [3, 13]: 4.4 mg/dL | Bilirubin indirect [3, 13]: 2.3 mg/dL | Bilirubin total [3, 13]: 4.4 mg/dL | CPK [3, 13]: 597 U/l | Glucose [3, 13]: 148 mg/dL | Sodium [3, 13]: 128 mmol | Urea [3, 13]: 6.0 mmol/L | HDL CHS [1, 4]: 0.64 ± 0.05 mmol/L | LDL CHS [1, 4]: 4.25 ± 0.44 mmol/L | TG [1, 4]: 1.31 ± 0.12 mmol/L | Total CHS [1, 4]: 5.6 ± 0.1 mmol/L | HDL CHS [1, 5]: 0.89 ± 0.01 mmol/L | LDL CHS [1, 5]: 3.82 ± 0.20 mmol/L | TG [1, 5]: 1.22 ± 0.03 mmol/L | Total CHS [1, 5]: 4.5 ± 0.2 mmol/L | HDL CHS [1, 7]: 0.74 ± 0.04 mmol/L | LDL CHS [1, 7]: 3.92 ± 0.43 mmol/L | TG [1, 7]: 1.21 ± 0.11 mmol/L | Total CHS [1, 7]: 4.8 ± 0.2 mmol/L | HDL CHS [1, 8]: 0.90 ± 0.01 mmol/L | LDL CHS [1, 8]: 3.43 ± 0.23 mmol/L | TG [1, 8]: 1.20 ± 0.03 mmol/L | Total CHS [1, 8]: 4.1 ± 0.3 mmol/L

weight coefficient, Pancreas [2, 14]: 0.37 ± 0.03^1 | weight coefficient, Kidneys [2, 14]: 0.75 ± 0.03 | weight coefficient, Liver [2, 14]: 4.41 ± 0.12
SMILES: CC(C)n1c(/C=C/[C@@H](O)C[C@@H](O)CC(=O)O)c(-c2ccc(F)cc2)c2ccccc21 (stereo in doubt) [FV, (3R,5S,6E)-7-[3-(4-fluorophenyl)-1-(propan-2-yl)-1H-indol-2-yl]-3,5-dihydroxyhept-6-enoic acid]
ALT [3, 15]: 170 U/l | AST [3, 15]: 191 U/l | Amylase [3, 15]: 637 U/l | Bilirubin direct [3, 15]: 2.6 mg/dL | Bilirubin indirect [3, 15]: 2.2 mg/dL | Bilirubin total [3, 15]: 4.0 mg/dL | CPK [3, 15]: 690 U/l | Glucose [3, 15]: 150 mg/dL | Potassium [3, 15]: 3 mM | Sodium [3, 15]: 125 mmol | Urea [3, 15]: 7.3 mmol/L | ALT [3, 16]: 148 U/l | AST [3, 16]: 200 U/l | Amylase [3, 16]: 590 U/l | Bilirubin direct [3, 16]: 1.4 mg/dL | Bilirubin indirect [3, 16]: 1.6 mg/dL | Bilirubin total [3, 16]: 4.2 mg/dL | CPK [3, 16]: 680 U/l | Glucose [3, 16]: 127 mg/dL | Potassium [3, 16]: 2.3 mM | Sodium [3, 16]: 124 mmol | Urea [3, 16]: 6.3 mmol/L | HDL CHS [1, 15]: 0.61 ± 0.04 mmol/L | LDL CHS [1, 15]: 3.31 ± 0.44 mmol/L | TG [1, 15]: 1.39 ± 0.14 mmol/L | Total CHS [1, 15]: 5.0 ± 0.3 mmol/L | HDL CHS [1, 17]: 0.72 ± 0.03 mmol/L | LDL CHS [1, 17]: 3.52 ± 0.44 mmol/L | TG [1, 17]: 1.45 ± 0.14 mmol/L | Total CHS [1, 17]: 4.9 ± 0.4 mmol/L
